From PMC10305119, “Analogs of 6-Bromohypaphorine with Increased Agonist Potency for α7 Nicotinic Receptor as Anti-Inflammatory Analgesic Agents” (Marine Drugs, 2023)
Entries after “also recorded” stand apart in the source; their conditions may differ.

Assays:
[1] = tested on: myocardial infarction model; parameters: method as in PMID 35538277; conditions: cited from earlier work
[2] = tested on: CD86 expression on macrophages; test: Flow cytometry of CD86 protein on macrophages; format: cell-based, human; conditions: 48 h incubation
Experimental: The effect of the above-listed compounds on the expression of the TLR4 receptor and the CD86 protein was studied by flow cytometry after 48 h incubation with macrophages. The interaction of bacterial endotoxins with the TLR4 receptor is known to activate the expression of several pro-inflammatory cytokine genes, while the co-stimulatory molecule CD86 plays an important role in […] inflammatory responses. A decrease in the expression of the TLR4 receptor was observed under the action of all tested compounds (Figure 4c,e), the rank order of these TLR4-suppressing effects was as follows: hypaphorine (14%) < PNU 282,987 (21%) < 6ID (31%).
Peripheral blood mononuclear cells (PBMCs) were separated by Ficoll-Paque PLUS density gradient centrifugation. PBMCs were placed in a sterile Petri dish and incubated at 37 °C for 2 h. Unattached cells were then removed by washing with PBS and substituted with fresh complete RPMI 1640 medium. To generate monocyte-derived macrophages (MDMs), 50 ng/mL GM-CSF was added to the isolated monocytes and cultured for 6 days to differentiate them into non-polarized MDMs.
Figure 4 The effects of PNU 282987, hypaphorine, and D-6-iodohypaphorine methyl ester (6ID) on macrophage membrane proteins expression. Cells were treated with these compounds for 48 h and then analyzed by flow cytometry. PNU 282,987 led to an increase in the (a) CD11b and (b) CD11c expression. (c): All tested compounds led to a decrease in TLR4 expression. (d): Macrophages stimulation with hypaphorine and 6ID promoted an increase in CD86 expression. Results obtained in three independent experiments on macrophages from different donors and presented as mean ± SD. One-way ANOVA tests with Tukey post hoc test: * p ˂0.05, ** p ˂ 0.01, **** p < 0.0001 in comparison with untreated cells.

[3] = target: T1, human α3-containing nAChRs (Homo sapiens, UniProt P32297); test: Calcium imaging of α3-containing nAChRs in SH-SY5Y cells (nicotine-induced calcium rise); format: cell-based
T1 construct: endogenous in cells; host or cells: human neuroblastoma SH-SY5Y
Experimental: Two of the studied compounds with high and medium agonist potency for α7 nAChR (6CF and 6ID, Table 1) were tested for activity toward α3* nAChR by calcium imaging.
Normalized data are presented as mean ± standard error. n = 6–7.

α9α10 nAChR = target: T2, α9α10 nAChR (Homo sapiens, UniProt Q9GZZ6+Q9UGM1); test: Two-electrode voltage-clamp on α9/α10 nAChR in Xenopus oocytes; format: cell-based
T2 construct: expressed in transfected cells; host or cells: Xenopus oocytes injected with in vitro transcribed RNA
Experimental: Recordings were performed using Axopatch 200 amplifier in two-electrode voltage-clamp setup (Molecular Devices, LLC, San Jose, CA, USA) on oocytes removed from mature Xenopus frogs. Two to three days before taking recordings, oocytes were injected with in vitro transcribed RNA, coding α9 and α10 nAChR and kept at 18 °C in ND96 electrophysiology buffer solution (5 mM HEPES/NaOH at pH 7.6 and 18 °C, 96 mM NaCl, 2 mM KCl, 1.8 mM CaCl2, 2 mM MgCl2).

T1 sequence (P32297 32-505): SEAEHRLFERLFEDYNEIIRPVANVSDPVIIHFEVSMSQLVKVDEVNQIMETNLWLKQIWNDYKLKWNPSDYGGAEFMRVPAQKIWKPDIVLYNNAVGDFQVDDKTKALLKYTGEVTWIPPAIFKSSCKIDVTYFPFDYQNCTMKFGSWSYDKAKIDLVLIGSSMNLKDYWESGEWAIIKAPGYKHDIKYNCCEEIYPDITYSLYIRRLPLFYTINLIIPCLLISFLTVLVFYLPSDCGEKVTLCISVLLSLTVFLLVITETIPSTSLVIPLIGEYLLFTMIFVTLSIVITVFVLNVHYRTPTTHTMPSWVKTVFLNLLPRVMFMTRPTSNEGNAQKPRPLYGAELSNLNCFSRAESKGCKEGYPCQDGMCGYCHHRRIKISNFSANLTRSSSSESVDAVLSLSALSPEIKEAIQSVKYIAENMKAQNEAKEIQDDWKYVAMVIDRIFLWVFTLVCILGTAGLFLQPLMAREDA
T2 sequence (Q9UGM1 26-479 limits assumed): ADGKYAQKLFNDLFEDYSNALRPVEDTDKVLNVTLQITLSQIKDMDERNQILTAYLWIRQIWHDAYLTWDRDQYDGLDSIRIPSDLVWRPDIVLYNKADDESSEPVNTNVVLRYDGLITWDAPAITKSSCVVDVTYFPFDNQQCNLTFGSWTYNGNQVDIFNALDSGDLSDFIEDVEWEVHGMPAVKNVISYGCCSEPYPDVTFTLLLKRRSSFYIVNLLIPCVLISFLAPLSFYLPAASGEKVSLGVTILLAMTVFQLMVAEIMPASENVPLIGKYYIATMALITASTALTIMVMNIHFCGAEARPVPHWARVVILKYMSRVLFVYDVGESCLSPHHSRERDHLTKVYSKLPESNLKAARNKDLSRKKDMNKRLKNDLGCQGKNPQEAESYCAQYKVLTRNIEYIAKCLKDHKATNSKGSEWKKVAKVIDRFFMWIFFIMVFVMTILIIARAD
T2 sequence (Q9GZZ6 25-450): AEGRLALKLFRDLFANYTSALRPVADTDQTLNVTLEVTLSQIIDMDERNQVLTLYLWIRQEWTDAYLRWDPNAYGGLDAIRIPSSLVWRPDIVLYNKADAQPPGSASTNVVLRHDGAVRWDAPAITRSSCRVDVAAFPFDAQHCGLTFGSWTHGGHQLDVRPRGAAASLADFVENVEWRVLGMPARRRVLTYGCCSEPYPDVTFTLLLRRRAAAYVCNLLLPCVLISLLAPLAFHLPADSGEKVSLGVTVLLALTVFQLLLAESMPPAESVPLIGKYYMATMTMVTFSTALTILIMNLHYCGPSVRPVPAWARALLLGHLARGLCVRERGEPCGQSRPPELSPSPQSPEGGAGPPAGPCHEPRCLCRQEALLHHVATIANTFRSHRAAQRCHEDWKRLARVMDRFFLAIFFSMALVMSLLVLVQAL

SMILES | effect in myocardial infarction model [1] | increase in the expression of CD86 [2] | agonism on α3* nAChR (calcium response) ([3]; compound alone, listed as 6ID) | IC50 ([3]; inhibition of nicotine (100 μM)-induced calcium rise) | activity toward α9α10 nAChR (α9α10 nAChR)
COC(=O)C(Cc1c[nH]c2cc([N+](=O)[O-])ccc12)[N+](C)(C)C (centres unmarked) [Compound 5, methyl ester of 6-nitrohypaphorine] | significant positive effect |  |  |  | 
COC(=O)[C@@H](Cc1c[nH]c2cc(I)ccc12)[N+](C)(C)C [Compound 1, (D)-6-iodohypaphorine methyl ester] |  | 21% | does not evoke noticeable calcium response in range of 3–30 μM; also recorded: Neither 6ID, which was most active agonist of α7 nAChR, nor 6CF showed detectable agonism on α3* nAChR at concentrations up to 30 µM | 4.4 ± 1 µM | almost inactive
